{"source": "patent US20100184677A1", "about": "“USE OF THE HUMAN PANCREATIC POLYPEPTIDE AS A THERAPEUTIC AGENT” (priority 2007, published 2010)", "system": "drug-resistant Mycobacterium tuberculosis", "conditions": "peptide 10 micrograms per ml, seven days"}
{"compound": "CC[C@H](C)[C@H](NC(=O)[C@H](Cc1ccc(O)cc1)NC(=O)[C@H](CCCNC(=N)N)NC(=O)[C@H](CCCNC(=N)N)NC(=O)[C@H](CC(C)C)NC(=O)[C@H](CC(=O)O)NC(=O)[C@H](C)NC(=O)[C@H](C)NC(=O)[C@H](Cc1ccc(O)cc1)NC(=O)[C@H](CCC(N)=O)NC(=O)[C@H](C)NC(=O)[C@H](CCSC)NC(=O)[C@H](CCC(N)=O)NC(=O)[C@H](CCC(=O)O)NC(=O)[C@@H]1CCCN1C(=O)[C@@H](NC(=O)[C@H](C)NC(=O)[C@H](CC(N)=O)NC(=O)[C@H](CC(=O)O)NC(=O)CNC(=O)[C@@H]1CCCN1C(=O)[C@H](Cc1ccc(O)cc1)NC(=O)[C@@H](NC(=O)[C@@H]1CCCN1C(=O)[C@H](CCC(=O)O)NC(=O)[C@H](CC(C)C)NC(=O)[C@@H]1CCCN1C(=O)[C@H](C)N)C(C)C)[C@@H](C)O)C(=O)N[C@@H](CC(N)=O)C(=O)N[C@@H](CCSC)C(=O)N[C@@H](CC(C)C)C(=O)N[C@H](C(=O)N[C@@H](CCCNC(=N)N)C(=O)N1CCC[C@H]1C(=O)N[C@@H](CCCNC(=N)N)C(=O)N[C@@H](Cc1ccc(O)cc1)C(N)=O)[C@@H](C)O", "note": "[Pancreatic polypeptide]", "values": [{"measurement": "% inhibition", "result": 0.0, "unit": "%"}]}
